From publication PMC8622385, “Metabolites of Prickly Rose: Chemodiversity and Digestive-Enzyme-Inhibiting Potential of Rosa acicularis and the Main Ellagitannin Rugosin D” (Plants, 2021)

Legend:
[1] = biological target: T1, α-amylase from the human pancreas (Homo sapiens, UniProt P04746); assay: HPLC microfractionation with post-column pancreatic α-amylase inhibition (dyed starch); assay type: biochemical; settings: HPLC zone of R. acicularis leaf extract (July sample), 30 s fractions
T1 construct: α-amylase from human pancreas; purchased Lee Biosolutions, Inc. Cat. No. 120-15; host or cells: human pancreas (tissue-derived)
T1 sequence (P04746 16-511): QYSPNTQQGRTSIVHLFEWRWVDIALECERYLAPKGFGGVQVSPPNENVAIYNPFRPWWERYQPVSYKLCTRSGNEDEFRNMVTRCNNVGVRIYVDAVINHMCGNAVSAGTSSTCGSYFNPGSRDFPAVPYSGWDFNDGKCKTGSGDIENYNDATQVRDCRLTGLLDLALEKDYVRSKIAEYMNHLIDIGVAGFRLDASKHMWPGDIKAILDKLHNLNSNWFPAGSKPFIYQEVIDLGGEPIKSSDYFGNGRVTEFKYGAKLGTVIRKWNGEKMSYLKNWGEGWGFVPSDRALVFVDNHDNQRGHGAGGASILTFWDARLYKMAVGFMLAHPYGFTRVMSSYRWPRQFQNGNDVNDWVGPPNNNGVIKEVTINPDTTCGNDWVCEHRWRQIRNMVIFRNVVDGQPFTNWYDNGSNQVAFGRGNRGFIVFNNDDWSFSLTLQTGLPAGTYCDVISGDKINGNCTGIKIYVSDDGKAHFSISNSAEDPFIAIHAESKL
Method: The probe of the extract was separated by HPLC, and fractions were eluted every 30 sec, collected, dried and mixed with pancreatic α-amylase. The hydrolytic activity of amylase was studied spectrophotometrically using starch azure as a substrate.
HPLC-PDA-ESI-tQ-MS conditions (Section 3.4) were used to separate the enlarged volume of R. acicularis leaf extract (July sample; 25 μL). The eluates (60 µL) were collected every 30 s by an automated fraction collector, a Shimadzu FRC-10A, and dried under a stream of N2. The eluate residue was dissolved in 50% methanol (50 µL) and added to 50 µL of water, 2.5 mL of Remazol-Brilliant-Blue-R-dyed starch (2% suspension in phosphate buffer, pH of 6.8) and 500 μL α-amylase from the human pancreas (0.4 U/mL), incubated for 50 min (37 °C) and the absorbance was measured at 620 nm. […] The value of 100% destruction of Remazol-Brilliant-Blue-R-dyed starch (or 0% content of intact starch compound) was measured for the eluate with a retention time of 0.5–1.0 min.

[2] = biological target: T2, porcine pancreatic amylase (Sus scrofa, UniProt P00690); assay: Simulated gastrointestinal digestion of artificial substrate mixture, amylase activity (p-nitrophenol marker, HPLC-DAD); assay type: biochemical; settings: 1000 μg/mL; control = 100% of enzyme activity
T2 construct: α-amylase from porcine pancreas; purchased Sigma-Aldrich Cat. No. 6255; host or cells: porcine pancreas (tissue-derived)
T2 sequence (P00690 16-511): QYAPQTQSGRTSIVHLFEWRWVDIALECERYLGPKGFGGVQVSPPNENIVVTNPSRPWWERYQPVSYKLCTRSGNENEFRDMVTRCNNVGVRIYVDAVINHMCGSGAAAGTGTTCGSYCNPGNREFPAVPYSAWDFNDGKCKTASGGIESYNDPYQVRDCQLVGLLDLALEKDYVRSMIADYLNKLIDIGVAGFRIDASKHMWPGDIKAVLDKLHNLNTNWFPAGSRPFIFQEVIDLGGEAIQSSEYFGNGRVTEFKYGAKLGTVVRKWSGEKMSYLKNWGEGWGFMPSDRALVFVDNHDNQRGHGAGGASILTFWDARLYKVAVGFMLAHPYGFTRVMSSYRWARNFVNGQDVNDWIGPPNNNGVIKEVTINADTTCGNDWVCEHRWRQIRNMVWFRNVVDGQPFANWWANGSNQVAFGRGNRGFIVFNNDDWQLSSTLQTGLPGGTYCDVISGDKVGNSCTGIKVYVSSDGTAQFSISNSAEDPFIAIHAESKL
Excerpt: (§1) To study the inhibitory potential of R. acicularis extracts on the digestive enzymes, we used the standardized static, simulated gastrointestinal digestion method of Minekus et al., based on physiologically relevant conditions of digestion. In brief, the artificial substrate mixture, including ethylidene-p-nitrophenyl-α-D-maltoheptaoside (as a carbohydrate model), Nα-benzoyl-L-arginine-7-amino-4-methylcoumarin hydrochloride (as a protein model) and 4-methylumbelliferyl heptanoate (as a lipid model), was digested with extracts of R. acicularis leaves, flowers, roots and fruits (in doses of 100 μg/mL and 1000 μg/mL) by gastric and intestinal enzymatic and electrolyte mixtures (or juices). […] In a final step, concentrations of specific markers, such as p-nitrophenol, 7-amino-4-methylcoumarin and 4-methylumbelliferone, released from an artificial nutrient mixture, were analyzed by an HPLC-DAD assay. […]
(§2) For simulation, the known standardized static gastrointestinal digestion method of Minekus et al. was used with no variation. […] The supernatant was analyzed using an HPLC-DAD assay (Section 3.7) to quantify the level of markers as p-nitrophenol, 7-amino-4-methylcoumarin and 4-methylumbelliferone formed from ethylidene-p-nitrophenyl-α-D-maltoheptaoside, Nα-benzoyl-L-arginine- 7-amino-4-methylcoumarin hydrochloride and 4-methylumbelliferyl heptanoate, respectively. […]

[3] = test system: proteases (pepsin, trypsin, chymotrypsin); assay: Simulated gastrointestinal digestion of artificial substrate mixture, protease activity (7-amino-4-methylcoumarin marker, HPLC-DAD); assay type: biochemical, porcine, bovine; settings: doses of 1–1000 μg/mL
Excerpt: as §1, with “([…])” for “(in doses of 100 μg/mL and 1000 μg/mL)”
as §2

[4] = biological target: T3, porcine pancreatic lipase (Sus scrofa, UniProt P00591); assay: Simulated gastrointestinal digestion of artificial substrate mixture, lipase activity (4-methylumbelliferone marker, HPLC-DAD); assay type: biochemical
T3 construct: lipase from porcine pancreas; purchased Sigma-Aldrich L3126 (lipase); C3028 (colipase); host or cells: porcine pancreas (tissue-derived)
T3 sequence (P00591 1-450): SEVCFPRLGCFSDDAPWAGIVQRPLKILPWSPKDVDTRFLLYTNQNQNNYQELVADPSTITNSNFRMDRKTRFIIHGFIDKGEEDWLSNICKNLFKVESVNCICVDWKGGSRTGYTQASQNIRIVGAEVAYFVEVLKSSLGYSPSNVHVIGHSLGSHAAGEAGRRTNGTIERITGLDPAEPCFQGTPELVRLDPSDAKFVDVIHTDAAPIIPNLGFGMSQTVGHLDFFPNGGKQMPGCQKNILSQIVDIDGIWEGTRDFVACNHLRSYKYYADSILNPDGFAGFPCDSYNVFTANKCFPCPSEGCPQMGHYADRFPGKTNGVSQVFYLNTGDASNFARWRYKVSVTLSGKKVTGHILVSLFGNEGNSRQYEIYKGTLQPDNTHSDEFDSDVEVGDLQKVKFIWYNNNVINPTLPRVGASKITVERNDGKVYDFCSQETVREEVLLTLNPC
T3 sequence (P02703 23-112 partner): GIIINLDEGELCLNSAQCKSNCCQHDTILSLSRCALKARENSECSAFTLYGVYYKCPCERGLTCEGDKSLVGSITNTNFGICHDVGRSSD
Excerpt: To study the inhibitory potential of R. acicularis extracts on the digestive enzymes, we used the standardized static, simulated gastrointestinal digestion method of Minekus et al., based on physiologically relevant conditions of digestion [77]. In brief, the artificial substrate mixture, including ethylidene-p-nitrophenyl-α-D-maltoheptaoside (as a carbohydrate model), Nα-benzoyl-L-arginine-7-amino-4-methylcoumarin hydrochloride (as a protein model) and 4-methylumbelliferyl heptanoate (as a lipid model), was digested with extracts of R. acicularis leaves, flowers, roots and fruits (in doses of 100 μg/mL and 1000 μg/mL) by gastric and intestinal enzymatic and electrolyte mixtures (or juices). […] In a final step, concentrations of specific markers, such as p-nitrophenol, 7-amino-4-methylcoumarin and 4-methylumbelliferone, released from an artificial nutrient mixture, were analyzed by an HPLC-DAD assay. […]
For simulation, the known standardized static gastrointestinal digestion method of Minekus et al. [77] was used with no variation. […] The supernatant was analyzed using an HPLC-DAD assay (Section 3.7) to quantify the level of markers as p-nitrophenol, 7-amino-4-methylcoumarin and 4-methylumbelliferone formed from ethylidene-p-nitrophenyl-α-D-maltoheptaoside, Nα-benzoyl-L-arginine- 7-amino-4-methylcoumarin hydrochloride and 4-methylumbelliferyl heptanoate, respectively. […]

[5] = biological target: T4, human pancreas α-amylase (Homo sapiens, UniProt P04746); assay: α-Amylase inhibitory activity, microplate spectrophotometric assay; assay type: biochemical; settings: mean ± S.D.; read-out: IC50 against human pancreas α-amylase (converted)
T4 construct: α-amylase from human pancreas; purchased Lee Biosolutions, Inc. Cat. No. 120-15; host or cells: human pancreas (tissue-derived)
T4 sequence (P04746 16-511): T1 sequence (P04746 16-511)
Excerpt: (§3) The α-amylase-inhibiting potential of rugosin D was studied using a microplate spectrophotometric assay with three mammalian amylases, including α-amylase from porcine pancreas, α-amylase from human saliva and α-amylase from human pancreas.

[6] = biological target: T5, human saliva α-amylase (Homo sapiens, UniProt P0DUB6); assay: as above; assay type: biochemical; settings: mean ± S.D.; read-out: IC50 against human saliva α-amylase (converted)
T5 construct: α-amylase from human saliva; purchased Sigma-Aldrich Cat. No. 0521; host or cells: human saliva
T5 sequence (P0DUB6 16-511): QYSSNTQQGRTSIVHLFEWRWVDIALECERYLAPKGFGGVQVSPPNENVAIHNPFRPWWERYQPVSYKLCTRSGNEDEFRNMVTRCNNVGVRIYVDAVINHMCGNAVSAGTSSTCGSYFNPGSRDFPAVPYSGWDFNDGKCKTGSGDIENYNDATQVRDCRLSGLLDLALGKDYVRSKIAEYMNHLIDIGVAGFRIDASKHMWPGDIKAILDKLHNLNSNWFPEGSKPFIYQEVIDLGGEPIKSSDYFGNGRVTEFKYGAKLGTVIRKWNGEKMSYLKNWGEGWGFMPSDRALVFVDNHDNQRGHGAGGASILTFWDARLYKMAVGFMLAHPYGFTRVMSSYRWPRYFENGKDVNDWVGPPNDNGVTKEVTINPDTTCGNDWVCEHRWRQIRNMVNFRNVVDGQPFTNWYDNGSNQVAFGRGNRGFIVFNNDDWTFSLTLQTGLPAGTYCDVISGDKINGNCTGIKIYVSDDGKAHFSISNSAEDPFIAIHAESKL
Excerpt: as §3

[7] = biological target: T6, porcine pancreas α-amylase (Sus scrofa, UniProt P00690); assay: as above; assay type: biochemical; settings: mean ± S.D.; read-out: IC50 against porcine pancreas α-amylase (converted)
T6 construct: α-amylase from porcine pancreas; purchased Sigma-Aldrich Cat. No. 6255; host or cells: porcine pancreas (tissue-derived)
T6 sequence (P00690 16-511): T2 sequence (P00690 16-511)
Excerpt: as §3

O=C(OC[C@H]1O[C@@H](OC(=O)c2cc(O)c(O)c(O)c2)[C@H](OC(=O)c2cc(O)c(O)c(O)c2)[C@@H](OC(=O)c2cc(O)c(O)c(O)c2)[C@@H]1O)c1cc(O)c(O)c(O)c1 [1,2,3,6-tetra-O-galloyl glucose, 1,2,3,6-Tetra-O-galloyl glucose]
Pancreatic-α-amylase-inhibiting activity of HPLC zone (in words) [1]: medium activity

C[C@H]1O[C@H](O[C@H]2[C@H](O)[C@@H](O)[C@@H](O[C@H]3[C@H](O)[C@@H](O)C(O)O[C@@H]3CO)O[C@@H]2CO)[C@H](O)[C@@H](O)[C@@H]1N[C@H]1C=C(CO)[C@@H](O)[C@H](O)[C@H]1O (some centres unmarked) [Acarbose]
Amylase activity (percentage of initial) after simulated gastrointestinal digestion [2]: 55%

O=C(O[C@@H]1O[C@@H]2COC(=O)c3cc(Oc4c(C(=O)O[C@@H]5O[C@@H]6COC(=O)c7cc(O)c(O)c(O)c7-c7c(cc(O)c(O)c7O)C(=O)O[C@H]6[C@H](OC(=O)c6cc(O)c(O)c(O)c6)[C@H]5OC(=O)c5cc(O)c(O)c(O)c5)cc(O)c(O)c4O)c(O)c(O)c3-c3c(cc(O)c(O)c3O)C(=O)O[C@H]2[C@H](OC(=O)c2cc(O)c(O)c(O)c2)[C@H]1OC(=O)c1cc(O)c(O)c(O)c1)c1cc(O)c(O)c(O)c1 [Rugosin D]
Inhibition of protease activity in simulated digestion (in words) [3]: not substantially inhibited
Inhibition of lipase activity in simulated digestion (in words) ([4]; doses of 1–1000 μg/mL): not substantially inhibited
Starch protected (starch content as percentage of initial) after reaction with pancreatic amylase [1]: 82–95%
IC50 [5]: 16.4 µM
IC50 [6]: 36 µM
IC50 [7]: 17.1 µM

O=C(O)[C@H]1O[C@@H](Oc2c(-c3ccc(O)c(O)c3)oc3cc(O)cc(O)c3c2=O)[C@H](O)[C@@H](O)[C@@H]1O [miquelianin, Quercetin-3-O-glucuronide]
Pancreatic-α-amylase-inhibiting activity of HPLC zone (in words) [1]: medium activity

CCCCCCCCCCC[C@@H](C[C@@H]1OC(=O)[C@H]1CCCCCC)OC(=O)[C@H](CC(C)C)NC=O [orlistat, reference compound]
Lipase activity (percentage of initial) after simulated gastrointestinal digestion ([4]; 1000 μg/mL, control = 100% of enzyme activity): 38%

O=C(OC1O[C@@H]2COC(=O)c3cc(O)c(O)c(O)c3-c3c(cc(O)c(O)c3O)C(=O)O[C@H]2[C@H](OC(=O)c2cc(O)c(O)c(O)c2)[C@H]1OC(=O)c1cc(O)c(O)c(O)c1)c1cc(O)c(O)c(O)c1 (some centres unmarked) [tellimagrandin II, Tellimagrandin II1]
Pancreatic-α-amylase-inhibiting activity of HPLC zone (in words) [1]: medium activity
